# Literature values as cited in patent publication US5496811A, “Submicron emulsions as ocular drug delivery vehicles” (priority 1992, dated 1996).
solubility in oil (oil),SMILES,solubility in water,solubility in alkaline solutions (alkaline solutions),stability in alkaline solutions (alkaline solutions)
sparingly soluble in oil,"CCC1C(=O)OCC1Cc1cncn1C (centres unmarked) [Pilocarpine, 3-ethyldihydro-4-[(1-methyl-1H-imidazole-5-yl)methyl]-2(3H)-furanon]",soluble in water,,
,COc1ccc2c(c1)c(CC(=O)O)c(C)n2C(=O)c1ccc(Cl)cc1 [Indomethacin],practically insoluble in water,soluble in alkaline solutions,unstable under these conditions
